The values that follow come from patent publication US6461845B1, “Recombinant hepatitis C virus RNA replicase” (Emory University, priority 1995, dated 2002).

Series [1] relates to poly(A) template. The experiment in a line: poly(U) synthesis assay using a poly(A) template. It is filed as biochemical. The settings on record: described reaction conditions. The procedure:
(§1) Assay conditions for r-HCV-RDRP activity: The preferred conditions for assaying RDRP activity are described. The alternative conditions are operative, and designated as alternatives, in parentheses. Incubations were carried out 20 or 50 μl in final volumes that contain: 20-50 mM HEPES-pH 8.0 (alternative is 20 mM Tris-HCl;pH 7.5); 1.5-5 mM MnCl2; 100 mM ammonium acetate; 1-4 mM dithiothreitol (DDT), 500 μM each ATP, CTP, and GTP (alternative: 500 μM GTP and 250 μM each ATP and CTP); 10 μM UTP; 1-20 μCi of [α-^33P]UTP (alternative is to use [α-^32P]UTP or [^3H]UTP), 10-20 U of RNasin; and rHCV-RDRP protein. […]
(§2) Labeled nucleotides incorporated into RNA are precipitated by TCA. The precipitates are collected, washed and counted, e.g. in a scintillation counter to measure the quantity of RNA synthesized in the enzyme reaction. […] [^3H]poly(U) was quantitated by liquid scintillation spectrometry (LKB 1218 RackBeta). The synthesized RNA can also be analyzed by gel electrophoresis to determine the size of the synthesized RNA chains. For gel analysis the reaction mixture is inactivated with 100 μl of proteinase K buffer; digested with proteinase K, processed and the RNA products are analyzed by formaldehyde/agarose gel electrophoresis or 6% denaturing polyacrylamide-7 M urea gel electrophoresis.

Series [2] relates to globin mRNA template. Put plainly: RNA synthesis assay using a globin mRNA template. The settings on record: described reaction conditions. In kind it is biochemical. The procedure:
as §1, §2

Series [3] can be described thus: RNA synthesis by r-HCV-RDRP in vitro, Mg++ dependence. In kind it is biochemical. The procedure: Both reactions were >90% primer-dependent under the described reaction conditions.
Assay conditions for r-HCV-RDRP activity: The preferred conditions for assaying RDRP activity are described. The alternative conditions are operative, and designated as alternatives, in parentheses. Incubations were carried out 20 or 50 μl in final volumes that contain: 20-50 mM HEPES-pH 8.0 (alternative is 20 mM Tris-HCl;pH 7.5); 1.5-5 mM MnCl2; 100 mM ammonium acetate; 1-4 mM dithiothreitol (DDT), 500 μM each ATP, CTP, and GTP (alternative: 500 μM GTP and 250 μM each ATP and CTP); 10 μM UTP; 1-20 μCi of [α-^33P]UTP (alternative is to use [α-^32P]UTP or [^3H]UTP), 10-20 U of RNasin; and rHCV-RDRP protein. Templates: 500-1000 ng of a preferred heteropolymeric template (e.g., either a 98 nt 3′-end of HCV genomic RNA or HCV RNA that included both the 5′ and 3′ ends of genomic or negative stranded HCV RNA) per 50 μl incubation; (as an alternative template, poly(A)/oligo(U) on either 20 μg/ml poly(A)460-600, and 10 μg/ml oligo (U)5-25 (or 0.8 μg of 10:1 mix of poly(A)/oligo(U) per 50 μl incubation can be employed). If the enzyme preparation is not >90-95 % pure include 50 μg/ml of actinomycin D. Incubations are for 15-120 min at 30° C. (or 22° C.). Note: stop incubations by adding 100 mM EDTA and then process for trichloroacetic acid (TCA) precipitation.

The nature of series [4]: isoelectric point of the enzyme. It is filed as physicochemical.

A value given as a limit tells only on which side of the number the result lay.

On to “r-HCV-RDRP: Modified recombinant HCV RNA-dependent RNA polymerase (NS5B, type 1a) with N-terminal Met-Ala dipeptide, expressed in E. coli”, for which the “primer dependence of poly(U) synthesis” value in series [1] was > 90%. Moreover, the “primer dependence of RNA synthesis” value in series [2] is > 90%. Also, the “Mg++ concentration giving maximal activity” value in series [3] is recorded as “about 20 mM”. Further, in series [3] (no Mg++), the “activity in the absence of Mg++” value was “no detectable activity”. Further, the isoelectric point entry in series [4] is recorded as “approximately 8.8”.
